Results as given in ChEMBL document CHEMBL5113478, “7-Azaindole, 2,7-diazaindole, and 1H-pyrazole as core structures for novel anticancer agents with potential chemosensitizing properties” (Eur J Med Chem, 2022).

Experiments:
Assay type in all cases: functional
[1] = test system: MOLT-4; assay: Antiproliferative activity against human MOLT-4 cells assessed as […] cell proliferation at 10 uM incubated for 48 hrs by WST-1 assay relative to control
[2] = test system: MOLT-4; assay: Antiproliferative activity against human MOLT-4 cells assessed as […] cell proliferation at 10 uM incubated for 48 hrs in presence of 2 uM of CDDP by WST-1 assay relative to control
[3] = test system: Jurkat; assay: Antiproliferative activity against human Jurkat cells assessed as […] cell proliferation at 10 uM incubated for 48 hrs by WST-1 assay relative to control
[4] = test system: Jurkat; assay: Antiproliferative activity against human Jurkat cells assessed as […] cell proliferation at 10 uM incubated for 48 hrs in presence of 2 uM of CDDP by WST-1 assay relative to control
[5] = test system: A2780; assay: Antiproliferative activity against human A2780 cells assessed as […] cell proliferation at 10 uM incubated for 48 hrs by WST-1 assay relative to control
[6] = test system: A2780; assay: Antiproliferative activity against human A2780 cells assessed as […] cell proliferation at 10 uM incubated for 48 hrs in presence of 2 uM of CDDP by WST-1 assay relative to control
[7] = test system: MCF7; assay: Antiproliferative activity against human MCF7 cells assessed as […] cell proliferation at 10 uM incubated for 48 hrs by WST-1 assay relative to control
[8] = test system: MCF7; assay: Antiproliferative activity against human MCF7 cells assessed as […] cell proliferation at 10 uM incubated for 48 hrs in presence of 10 uM of CDDP by WST-1 assay relative to control
[9] = test system: A549; assay: Antiproliferative activity against human A549 cells assessed as […] cell proliferation at 10 uM incubated for 48 hrs by WST-1 assay relative to control
[10] = test system: A549; assay: Antiproliferative activity against human A549 cells assessed as […] cell proliferation at 10 uM incubated for 48 hrs in presence of 15 uM of CDDP by WST-1 assay relative to control
[11] = test system: SAOS-2; assay: Antiproliferative activity against human SAOS-2 cells assessed as […] cell proliferation at 10 uM incubated for 48 hrs by WST-1 assay relative to control
[12] = test system: SAOS-2; assay: Antiproliferative activity against human SAOS-2 cells assessed as […] cell proliferation at 10 uM incubated for 48 hrs in presence of 15 uM of CDDP by WST-1 assay relative to control
[13] = test system: PANC-1; assay: Antiproliferative activity against human PANC-1 cells assessed as […] cell proliferation at 10 uM incubated for 48 hrs by WST-1 assay relative to control
[14] = test system: PANC-1; assay: Antiproliferative activity against human PANC-1 cells assessed as […] cell proliferation at 10 uM incubated for 48 hrs in presence of 15 uM of CDDP by WST-1 assay relative to control
[15] = test system: HT-29; assay: Antiproliferative activity against human HT-29 cells assessed as […] cell proliferation at 10 uM incubated for 48 hrs by WST-1 assay relative to control
[16] = test system: HT-29; assay: Antiproliferative activity against human HT-29 cells assessed as […] cell proliferation at 10 uM incubated for 48 hrs in presence of 15 uM of CDDP by WST-1 assay relative to control
[17] = test system: HeLa; assay: Antiproliferative activity against human HeLa cells assessed as […] cell proliferation at 10 uM incubated for 48 hrs by WST-1 assay relative to control
[18] = test system: HeLa; assay: Antiproliferative activity against human HeLa cells assessed as […] cell proliferation at 10 uM incubated for 48 hrs in presence of 15 uM of CDDP by WST-1 assay relative to control

Compound | Activity [1] [%] | Activity [2] [%] | Activity [3] [%] | Activity [4] [%] | Activity [5] [%] | Activity [6] [%] | Activity [7] [%] | Activity [8] [%] | Activity [9] [%] | Activity [10] [%] | Activity [11] [%] | Activity [12] [%] | Activity [13] [%] | Activity [14] [%] | Cell viability relative to control [15] [%] | Activity [16] [%] | Activity [17] [%] | Activity [18] [%]
CC(C)S(=O)(=O)c1ccc(-c2cnc3[nH]cc(C(=O)Nc4ccc(N(C)C)cc4)c3c2)cc1 | 96 | 59 | 96 | 59 | 96 | 59 | 96 | 59 | 96 | 59 | 96 | 59 | 96 | 59 | 96 | 59 | 96 | 59
CC(C)S(=O)(=O)c1ccc(-c2cnc3[nH]c(C(=O)N4CCC(c5ccccc5)CC4)cc3c2)cc1 | 92 | 64 | 92 | 64 | 92 | 64 | 92 | 64 | 92 | 64 | 92 | 64 | 92 | 64 | 92 | 64 | 92 | 64
CC(C)S(=O)(=O)c1ccc(-c2cnc3[nH]c(C(=O)Nc4ccc(N(C)C)cc4)cc3c2)cc1 | 108 | 68 | 108 | 68 | 108 | 68 | 108 | 68 | 108 | 68 | 108 | 68 | 108 | 68 | 108 | 68 | 108 | 68
CC(C)S(=O)(=O)c1ccc(-c2cnc3[nH]nc(C(=O)NCc4ccccc4)c3c2)cc1 | 90 | 60 | 90 | 60 | 90 | 60 | 90 | 60 | 90 | 60 | 90 | 60 | 90 | 60 | 90 | 60 | 90 | 60
CCN1CCN(C(=O)c2c[nH]c3ncc(-c4ccc(S(=O)(=O)C(C)C)cc4)cc23)CC1 | 100 | 66 | 100 | 66 | 100 | 66 | 100 | 66 | 100 | 66 | 100 | 66 | 100 | 66 | 100 | 66 | 100 | 66
CC(C)S(=O)(=O)c1ccc(-c2cc(C(=O)NCc3ccccc3)n[nH]2)cc1 | 98 | 68 | 98 | 68 | 98 | 68 | 98 | 68 | 98 | 68 | 98 | 68 | 98 | 68 | 98 | 68 | 98 | 68
CC(C)S(=O)(=O)c1ccc(-c2cc(-c3nnc(-c4ccccc4)o3)n[nH]2)cc1 | 98 | 64 | 98 | 64 | 98 | 64 | 98 | 64 | 98 | 64 | 98 | 64 | 98 | 64 | 98 | 64 | 98 | 64
CS(=O)(=O)c1ccc(-c2cnc3[nH]cc(C(=O)N4CCC(c5ccccc5)CC4)c3c2)cc1 | 49 | 44 | 49 | 44 | 49 | 44 | 49 | 44 | 49 | 44 | 49 | 44 | 49 | 44 | 49 | 44 | 49 | 44
CC(C)S(=O)(=O)c1ccc(-c2cnc3[nH]c(C(=O)NCc4ccccc4)cc3c2)cc1 | 100 | 61 | 100 | 61 | 100 | 61 | 100 | 61 | 100 | 61 | 100 | 61 | 100 | 61 | 100 | 61 | 100 | 61
CCN(CC)c1ccc(CNC(=O)c2n[nH]c3ncc(-c4ccc(S(=O)(=O)C(C)C)cc4)cc23)cc1 | 83 | 57 | 83 | 57 | 83 | 57 | 83 | 57 | 83 | 57 | 83 | 57 | 83 | 57 | 83 | 57 | 83 | 57
CS(=O)(=O)c1ccc(-c2cnc3[nH]cc(C(=O)NCc4ccccc4)c3c2)cc1 | 89 | 64 | 89 | 64 | 89 | 64 | 89 | 64 | 89 | 64 | 89 | 64 | 89 | 64 | 89 | 64 | 89 | 64
CS(=O)(=O)c1ccc(-c2cc(C(=O)NCc3ccccc3)n[nH]2)cc1 | 95 | 63 | 95 | 63 | 95 | 63 | 95 | 63 | 95 | 63 | 95 | 63 | 95 | 63 | 95 | 63 | 95 | 63
CC(C)S(=O)(=O)c1ccc(-c2cc(C(=O)N3CCC(c4ccccc4)CC3)n[nH]2)cc1 | 84 | 62 | 84 | 62 | 84 | 62 | 84 | 62 | 84 | 62 | 84 | 62 | 84 | 62 | 84 | 62 | 84 | 62
